Source: patent publication US20060079512A1, “Dibenzodiazepinone analogues, processes for their production and their use as pharmaceuticals” (Ecopia BioSciences, Inc., priority 2003, published 2006)
Entries after “also recorded” stand apart in the source; their conditions may differ. Read-outs that look alike come from different tables or passages of the source.

Experiments:
[1] = test system: HT-29 (colorectal carcinoma); experiment: In vitro cytotoxic activity (GI50), method (a), propidium iodide; type: cell-based; conditions: Homo sapiens, HT-29; method (a), 96 hours; read-out: HT-29 (GI50 μM)
Protocol: (§1) Compounds were dissolved at 10 mM in DMSO. Dilution in vehicle to concentrations of 30, 10, 3, 1 and 0.3 μM were prepared immediately before assays. Depending on the cell line's growth characteristics, 4000-10000 cells were plated in two 96-wells pates (day 0) and incubated for 16 hours. The following day, propidium iodide was added to one of the two plates and fluorescence measured (Tz). Test compounds were added to the second plate, as well as vehicle control, and cells further incubated for 96 hours. Each compound was tested at each concentration and in triplicates. The equivalent cell number was determined after adding propidium iodide by measuring the signal by fluorescence (C for control).

[2] = test system: MDA-MB-231 (mammary gland adenocarcinoma); experiment: as above; type: cell-based; conditions: Homo sapiens, MDA-MB-231; method (a), 96 hours; read-out: MDA-MB-231 (GI50 μM)
Protocol: as §1

[3] = test system: PC-3 (prostate adenocarcinoma); experiment: as above; type: cell-based; conditions: method (a), 96 hours; read-out: PC-3 (GI50 μM)
Protocol: as §1

SF268 (CNS) = experiment: as above; type: cell-based; conditions: Homo sapiens, SF-268; method (a), 96 hours; read-out: SF-268 (GI50 μM)
Protocol: as §1

[4] = test system: HT-29, SF-268, PC-3, MDA-MB-231; experiment: Average GI50 over the four cell lines, method (a); type: cell-based; conditions: method (a); values > 30 not considered; read-out: Average (GI50 μM)
Protocol: as §1

C6 glioblastoma = experiment: In vivo efficacy in glioma model, second series (treatment started at day 10); parameters: species or system Mus musculus nude mice; conditions: for Tumor volume (mm^3) (mean ± SEM): Q1 × 5; for % Inhibition: Q1 × 5, vs saline
Protocol: Animal experiments were performed according to ethical guidelines of animal experimentation (Charte du comité d'éthique du CNRS, juillet 2003) and the English guidelines for the welfare of animals in experimental neoplasia (WORKMAN, P., […], P., BALKWILL, F., et al. (1998). United Kingdom Coordinating Committee on Cancer Research (UKCCCR) Guidelines for the welfare of animals in experimental neoplasia (Second Edition, July 1997; British Journal of Cancer, 77:1-10). Any dead or apparently sick mice were promptly removed and replaced with healthy mice. Sick mice were euthanized upon removal from the cage. Animals were maintained in rooms under controlled conditions of temperature (23±2° C.), humidity (45±5%), photoperiodicity (12 hrs light/12 hrs dark) and air exchange. Animals were housed in polycarbonate cages (5/single cage) that were equipped to provide food and water. Animal bedding consisted of sterile wood shavings that were replaced every other day. Food was provided ad libitum, being placed in the metal lid on the top of the cage. Autoclaved tap water was provided ad libitum. Water bottles were equipped with rubber stoppers and sipper tubes. Water bottles were cleaned, sterilized and replaced once a week. Two different numbers engraved on two earrings identified the animals. Each cage was labeled with a specific code.
Tumor Cell Line: The C6 cell line was cloned from a rat glial tumor induced by N-nitrosomethyurea (NMU) according to Premont et al. (Premont J, Benda P, Jard S., [3H] norepinephrine binding by rat glial cells in culture. Lack of correlation between binding and adenylate cyclase activation. Biochim Biophys Acta. 1975 Feb. 13;381(2):368-76.) after series of alternate culture and animal passages. Cells were grown as adherent monolayers at 37° C. in a humidified atmosphere (5% CO2, 95% air). The culture medium was DMEM supplemented with 2 mM L-glutamine and 10% fetal bovine serum. For experimental use, tumor cells were detached from the culture flask by a 10 min treatment with trypsin-versen. The cells were counted in a hemocytometer and their viability assessed by 0.25% trypan blue exclusion.
Preparation of the Test Article: For the test article, the following procedure was followed for reconstitution (performed immediately preceding injection). The vehicle consisted of a mixture of benzyl alcohol (1.5%), ethanol (8.5%), propylene glycol (27%), PEG 400 (27%), dimethylacetamide (6%) and water (30%). The vehicle solution was first vortexed in order to obtain a homogeneous liquid. 0.6 mL of the vortexed vehicle solution was added to each vial containing the test article (Compound 1). Vials were mixed thoroughly by vortexing for 1 minute and inverted and shaken vigorously. Vials were mixed again prior to injection into each animal.
Animal Inoculation with tumor cells: Experiment started at day 0 (D0). On D0, mice received a superficial intramuscular injection of C6 tumor cells (5×10^5 cells) in 0.1 mL of DMEM complete medium into the upper right posterior leg.
In a second series of experiments, treatment started at day 10 following inoculation of C6 cells when tumors became palpable (around 100 to 200 mm^3). Treatment was repeated daily for 5 consecutive days. On the day of the treatment, each mouse was slowly injected with 100 μL of Compound 1 by i.p. route. Mice of group 1 were treated daily with saline isosmotic solution. Mice of group 2 were treated daily with the vehicle solution. Mice of group 3 were treated daily with 20 mg/kg of Compound 1. Mice of group 4 were treated daily with 30 mg/kg of Compound 1. Mice were treated until the tumor volume of the saline-treated control mice (group 1) reached around 4 cm^3. Tumor volume was measured every second day until the end of the treatment using callipers. […] An asterisk in the P value column of Table 20 indicates a statistically significant value, while “ns” signifies not significant.

36 cancer cell lines = experiment: Anticancer activity profiling against 36 cell lines (IC50); type: cell-based
Protocol: as §1

## CC(C)=CCC/C(C)=C/CC/C(C)=C/CN1C(=O)c2cccc(O)c2Nc2c(O)cc(O)cc21 [Compound 1, 10-farnesyl-4,6,8-trihydroxy-5,10-dihydrodibenzo[b,e][1,4]diazepin-11-one]
[1]
  GI50: 11.2 µM
[2]
  GI50: 1.79 µM
[3]
  GI50: 1.95 µM
SF268 (CNS)
  GI50: 1.96 µM
[4]
  GI50: 4.23 µM
C6 glioblastoma; 20 mg/kg i.p.
  Tumor volume (mm^3) (mean ± SEM): 1,721.5 ± 374.79 mm^3
  % Inhibition: 60.5%
C6 glioblastoma; 30 mg/kg i.p.
  Tumor volume (mm^3) (mean ± SEM): 1,131.6 ± 525.21 mm^3
  % Inhibition: 74.1%
C6 glioblastoma; 20-30 mg/kg
  Histological analysis of tumor sections: cell density of tumor treated with Compound 1 appears decreased; also recorded: cell density was decreased and the nuclei of remaining tumor cells appeared larger and pycnotic
C6 glioblastoma; 20-30 mg/kg i.p., compared to the saline group
  mean value of the tumor volume of all treated groups: significantly reduced

## CC(C)=CCC/C(C)=C/CC/C(C)=C/CN1C(=O)c2cccc(O)c2N(C)c2c(O)cc(O)cc21 [Compound 2, 10-farnesyl-4,6,8-trihydroxy-5-methyl-5,10-dihydro-dibenzo[b,e][1,4]diazepin-11-one]
36 cancer cell lines; 36 tumor types
  levels of IC50 values: low micromolar to nanomolar
36 cancer cell lines; Bladder, cell line 1218L (Xenograft), urothelial adeno ca, read-out: IC50
  IC50: 166 nM
36 cancer cell lines; Bladder, cell line T24 (ATCC), transitional cell ca, read-out: IC50
  IC50: 127 nM
36 cancer cell lines; CNS, cell line SF268 (NCI), read-out: IC50
  IC50: 10 nM
36 cancer cell lines; Gastric, cell line 251L (Xenograft), adeno ca, pd, read-out: IC50
  IC50: 105 nM
36 cancer cell lines; Head & Neck, cell line 536L (Xenograft), hypopharynx ca, read-out: IC50
  IC50: 181 nM
36 cancer cell lines; Homo sapiens, 22Rv1, Prostate, cell line 22RV1 (ATCC), adeno ca, md, read-out: IC50
  IC50: 142 nM
36 cancer cell lines; Homo sapiens, CNS cell, CNS, cell line 498NL (Xenograft), glioblastoma, read-out: IC50
  IC50: 176 nM
36 cancer cell lines; Homo sapiens, DU-145, Prostate, cell line DU145 (NCI), adeno ca, md, read-out: IC50
  IC50: 158 nM
36 cancer cell lines; Homo sapiens, HCT-116, Colon, cell line HCT116 (NCI), adeno ca, pd, read-out: IC50
  IC50: 156 nM
36 cancer cell lines; Homo sapiens, HT-29, Colon, cell line HT29 (NCI), adeno ca, pd, read-out: IC50
  IC50: 223 nM
36 cancer cell lines; Homo sapiens, LNCaP, Prostate, cell line LNCAP (DSMZ), adeno ca, md, read-out: IC50
  IC50: 485 nM
36 cancer cell lines; Homo sapiens, MCF7, Mammary, cell line MCF7 (NCI), mamma ca, read-out: IC50
  IC50: 276 nM
36 cancer cell lines; Homo sapiens, NCI-H460, Lung, cell line H460 (NCI), large cell ca, read-out: IC50
  IC50: 366 nM
36 cancer cell lines; Homo sapiens, OVCAR-3, Ovarian, cell line OVCAR3 (NCI), adeno ca, md, read-out: IC50
  IC50: 139 nM
36 cancer cell lines; Homo sapiens, PANC-1, Pancreas, cell line PANC1 (ATCC), read-out: IC50
  IC50: 125 nM
36 cancer cell lines; Homo sapiens, PC-3M, Prostate, cell line PC3M (NCI), adeno ca, pd, read-out: IC50
  IC50: 114 nM
36 cancer cell lines; Lung, cell line 289L (Xenograft), adeno ca, read-out: IC50
  IC50: 1550 nM
36 cancer cell lines; Lung, cell line 526L (Xenograft), adeno ca, read-out: IC50
  IC50: 104 nM
36 cancer cell lines; Lung, cell line 529L (Xenograft), large cell ca, read-out: IC50
  IC50: 127 nM
36 cancer cell lines; Lung, cell line 629L (Xenograft), adeno ca, read-out: IC50
  IC50: 164 nM
36 cancer cell lines; Lung, cell line 1121L (Xenograft), large cell ca, read-out: IC50
  IC50: 125 nM
36 cancer cell lines; Mammary, cell line 401NL (Xenograft), pap adeno ca, wd, read-out: IC50
  IC50: 194 nM
36 cancer cell lines; Melanoma, cell line 276L (Xenograft), mm, amelanotic, read-out: IC50
  IC50: 1950 nM
36 cancer cell lines; Melanoma, cell line 394NL (Xenograft), mm, amelanotic, pd, read-out: IC50
  IC50: 20 nM
36 cancer cell lines; Melanoma, cell line 462NL (Xenograft), mm, amelanotic, read-out: IC50
  IC50: 978 nM
36 cancer cell lines; Melanoma, cell line 514L (Xenograft), mm, melanotic, read-out: IC50
  IC50: 110 nM
36 cancer cell lines; Melanoma, cell line 520L (Xenograft), mm, melanotic, read-out: IC50
  IC50: 85 nM
36 cancer cell lines; Ovarian, cell line 899L (Xenograft), pap serous ca, md, read-out: IC50
  IC50: 238 nM
36 cancer cell lines; Ovarian, cell line 1619L (Xenograft), adeno ca, md, read-out: IC50
  IC50: 579 nM
36 cancer cell lines; Pancreas, cell line 1657L (Xenograft), adeno ca, md, read-out: IC50
  IC50: 1780 nM
36 cancer cell lines; Pleuramesot., cell line 1752L (Xenograft), pleuromesothelioma, read-out: IC50
  IC50: 1500 nM
36 cancer cell lines; Renal, cell line 393NL (Xenograft), hypernephroma, wd, read-out: IC50
  IC50: 527 nM
36 cancer cell lines; Renal, cell line 486L (Xenograft), hypernephroma, pd, read-out: IC50
  IC50: 1140 nM
36 cancer cell lines; Renal, cell line 944L (Xenograft), hypernephroma, read-out: IC50
  IC50: 230 nM
36 cancer cell lines; Renal, cell line 1781L (Xenograft), renal ca, read-out: IC50
  IC50: 172 nM
36 cancer cell lines; Uterus, cell line 1138L (Xenograft), carcinosarcoma, wd, read-out: IC50
  IC50: 139 nM
36 cancer cell lines; mean of all 36 cell lines, read-out: IC50, Mean of all cell lines
  IC50: 407 nM
